How the values were obtained:
Assay in all cases: combination Emax (second highest fraction inhibited in the dose matrix, 72 h); higher = more inhibition; extreme values may be limits of the assay
[1] = system: A101D (Melanoma)
Method in brief: (§1)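 Cell lines in DMEM/F12 or RPMI with 10% FBS were plated in 1536-well plates, held 24 hours at 37°C, 5% CO2, then given two-drug dose matrices for 72 hours (DMSO typically 0.2%). Viability was read by CellTiter-Glo 2.0 luminescence and scaled as inhibition from 0 (vehicle wells) to 1 (blank wells). Combination Emax is the second-highest inhibition in the matrix; Bliss excess is observed combination effect minus expected EA + EB − EA·EB, EA and EB being single-agent effects.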

[2] = system: CGTH-W-1 (Thyroid Gland Carcinoma)
Method in brief: as §1

[3] = system: COLO-792 (Melanoma)
Method in brief: as §1

[4] = system: EB2 (Burkitt's Lymphoma)
Method in brief: as §1

[5] = system: EW-7 (Ewing's Sarcoma)
Method in brief: as §1

[6] = system: GA-10 (Burkitt's Lymphoma)
Method in brief: as §1

[7] = system: HCC1428 (Breast Carcinoma)
Method in brief: as §1

[8] = system: JHU-022 (Oral Cavity Carcinoma)
Method in brief: as §1

[9] = system: JIMT-1 (Breast Carcinoma)
Method in brief: as §1

[10] = system: Jurkat (T-Lymphoblastic Leukemia)
Method in brief: as §1

[11] = system: KYSE-140 (Esophageal Squamous Cell Carcinoma)
Method in brief: as §1

[12] = system: MDA-MB-436 (Breast Carcinoma)
Method in brief: as §1

[13] = system: NCI-H2228 (Lung Adenocarcinoma)
Method in brief: as §1

[14] = system: NCI-H716 (Colorectal Carcinoma)
Method in brief: as §1

[15] = system: OACp4C (Esophageal Adenocarcinoma)
Method in brief: as §1

[16] = system: PEO1 (Ovarian Carcinoma)
Method in brief: as §1

[17] = system: UACC-812 (Breast Carcinoma)
Method in brief: as §1

[18] = system: WM1552C (Melanoma)
Method in brief: as §1

[19] = system: NB13 (Neuroblastoma)
Method in brief: as §1

[20] = system: KP-N-YN (Neuroblastoma)
Method in brief: as §1

Compound | combination Emax [1] | combination Emax [2] | combination Emax [3] | combination Emax [4] | combination Emax [5] | combination Emax [6] | combination Emax [7] | combination Emax [8] | combination Emax [9] | combination Emax [10] | combination Emax [11] | combination Emax [12] | combination Emax [13] | combination Emax [14] | combination Emax [15] | combination Emax [16] | combination Emax [17] | combination Emax [18] | combination Emax [19] | combination Emax [20]
CN(C)CCCOc1ccc(-c2ccc3ncc4c(c3c2)n(C2CCOCC2)c(=O)n4C)cn1 [AZD0156] + O=C(c1cc(Cc2n[nH]c(=O)c3ccccc23)ccc1F)N1CCN(C(=O)C2CC2)CC1 [Olaparib] (first compound max 3 µM, partner max 3 µM) | 0.411 | 0.214 | 0.294 | 0.496 | 0.524 | 0.741 | 0.228 | 0.62 | 0.0881 | 0.511 | 0.113 | 0.205 | 0.439 | 0.225 | 0.406 | 0.122 | 0.261 | 0.324 | – | –
C=CCn1c(=O)c2cnc(Nc3ccc(N4CCN(C)CC4)cc3)nc2n1-c1cccc(C(C)(C)O)n1 [AZD1775] + C1CN(CCC1(C(=O)N[C@@H](CCO)C2=CC=C(C=C2)Cl)N)C3=NC=NC4=C3C=CN4 [Capivasertib] (first compound max 3 µM, partner max 3 µM) | 0.757 | 0.211 | 0.651 | 0.822 | 0.896 | 0.964 | 0.524 | 0.71 | 0.76 | 0.986 | 0.844 | 0.41 | 0.59 | 0.727 | 0.889 | 0.773 | 0.466 | 0.719 | – | –
C=CCn1c(=O)c2cnc(Nc3ccc(N4CCN(C)CC4)cc3)nc2n1-c1cccc(C(C)(C)O)n1 [AZD1775] + C[C@@H]1COCCN1C2=NC(=NC(=C2)C3(CC3)[S@](=N)(=O)C)C4=C5C=CNC5=NC=C4 [AZD6738] (first compound max 1 µM, partner max 10 µM) | 0.749 | 0.434 | 0.474 | 0.88 | 0.944 | 1 | 0.49 | 0.601 | 0.76 | 0.991 | 0.967 | 0.478 | 0.653 | 0.623 | 0.831 | 0.6 | 0.531 | 0.805 | 0.953 | –
CN(CCO)CC[C@H](CSc1ccccc1)Nc1ccc(S(=O)(=O)NC(=O)c2ccc(N3CCC([C@@H](O)c4ccccc4-c4ccc(Cl)cc4)CC3)cc2)cc1S(=O)(=O)C(F)(F)F [AZD4320] + CN(C)CCCOc1ccc(-c2ccc3ncc4c(c3c2)n(C2CCOCC2)c(=O)n4C)cn1 [AZD0156] (first compound max 1 µM, 7x7, partner max 1 µM) | 0.413 | 0.119 | 0.856 | 0.253 | 0.68 | 0.303 | 0.541 | 0.102 | 0.171 | 0.478 | 0.157 | 0.133 | 0.278 | 0.195 | 0.851 | 0.45 | 0.175 | 0.163 | 1 | –
Cc1c2c(nn1C)CSCc1cc(n(C)n1)CSc1cc(c3ccccc3c1)OCCCc1c(C(=O)O)n(C)c3c-2c(Cl)ccc13 [AZD5991] + CCN(CCO)CCCOc1ccc2c(Nc3cc(CC(=O)Nc4cccc(F)c4)[nH]n3)ncnc2c1 [AZD2811] (first compound max 1 µM, 7x7, partner max 1 µM) | 0.998 | 0.521 | 0.977 | 0.342 | 0.655 | 0.923 | 0.974 | 0.273 | – | 0.919 | 0.602 | 0.181 | 0.296 | 0.349 | 0.827 | 0.321 | 0.508 | 0.824 | 0.615 | –
NC1(C(=O)N[C@@H](CCO)c2ccc(Cl)cc2)CCN(c2ncnc3[nH]ccc23)CC1 [Capivasertib] + CC(=O)c1c(C)c2cnc(Nc3ccc(N4CCNCC4)cn3)nc2n(C2CCCC2)c1=O [Palbociclib] (first compound max 10 µM, 7x7, partner max 10 µM) | 0.581 | 0.349 | 0.465 | 0.566 | 0.657 | 0.97 | 0.18 | 0.471 | 0.246 | 0.849 | 0.78 | 0.224 | 0.506 | 0.49 | 0.858 | 0.415 | – | 0.427 | 0.392 | 0.301
NC1(C(=O)N[C@@H](CCO)c2ccc(Cl)cc2)CCN(c2ncnc3[nH]ccc23)CC1 [Capivasertib] + CC(C)n1c(=O)n(C)c2cnc3cc(F)c(-c4ccc(OCCCN5CCCCC5)nc4)cc3c21 [AZD1390] (first compound max 10 µM, 7x7, partner max 0.3 µM) | 0.46 | 0.357 | 0.444 | 0.61 | 0.587 | 0.74 | 0.186 | 0.413 | 0.202 | 0.697 | 0.732 | 0.267 | 0.46 | 0.45 | 0.818 | 0.32 | – | 0.305 | 0.254 | 0.359
NC1(C(=O)N[C@@H](CCO)c2ccc(Cl)cc2)CCN(c2ncnc3[nH]ccc23)CC1 [Capivasertib] + CCN(CCO)CCCOc1ccc2c(Nc3cc(CC(=O)Nc4cccc(F)c4)[nH]n3)ncnc2c1 [AZD2811] (first compound max 10 µM, 7x7, partner max 1 µM) | 0.552 | 0.354 | 0.661 | 0.653 | 0.885 | 0.918 | 0.465 | 0.446 | 0.284 | 0.717 | 0.829 | 0.264 | 0.533 | 0.457 | 0.897 | 0.418 | – | 0.447 | 0.534 | 0.608
NC1(C(=O)N[C@@H](CCO)c2ccc(Cl)cc2)CCN(c2ncnc3[nH]ccc23)CC1 [Capivasertib] + COc1nnc2ccc(N3CCC(c4ccc(OCCN5CCN(C)C(=O)[C@H]5C)cc4)CC3)nn12 [AZD5153] (first compound max 10 µM, 7x7, partner max 1 µM) | 0.66 | 0.408 | 0.94 | 0.707 | 0.828 | 0.927 | 0.571 | 0.486 | 0.446 | 0.992 | 0.857 | 0.0453 | 0.52 | 0.616 | 0.905 | 0.453 | – | 0.555 | 0.775 | 0.478
NC1(C(=O)N[C@@H](CCO)c2ccc(Cl)cc2)CCN(c2ncnc3[nH]ccc23)CC1 [Capivasertib] + C[C@@H]1COCCN1C2=NC(=NC(=C2)C3(CC3)[S@](=N)(=O)C)C4=C5C=CNC5=NC=C4 [AZD6738] (first compound max 10 µM, 7x7, partner max 10 µM) | 0.803 | 0.398 | 0.549 | 0.831 | 1 | 1 | 0.318 | 0.631 | 0.612 | 0.961 | 0.867 | 0.372 | 0.575 | 0.555 | 0.979 | 0.616 | – | 0.651 | 0.896 | 0.962
NC1(C(=O)N[C@@H](CCO)c2ccc(Cl)cc2)CCN(c2ncnc3[nH]ccc23)CC1 [Capivasertib] + Cn1cnc2c(F)c(Nc3ccc(Br)cc3Cl)c(C(=O)NOCCO)cc21 [Selumetinib] (first compound max 10 µM, 7x7, partner max 10 µM) | 0.785 | 0.47 | 0.8 | 0.628 | 0.682 | 0.77 | 0.171 | 0.576 | 0.407 | 0.686 | 0.873 | 0.388 | 0.58 | 0.783 | 0.987 | 0.56 | – | 0.638 | 0.369 | 0.391
CS(=O)(=O)CCNCc1ccc(-c2ccc3ncnc(Nc4ccc(OCc5cccc(F)c5)c(Cl)c4)c3c2)o1 [Lapatinib] + NC1(c2ccc(-c3nc4ccn5c(=O)[nH]nc5c4cc3-c3ccccc3)cc2)CCC1 [MK-2206] (first compound max 10 µM, 7x7, partner max 10 µM) | 0.967 | 0.894 | – | 0.834 | 0.965 | – | 0.308 | 0.663 | – | – | – | 0.461 | – | – | – | 0.348 | – | 0.767 | 0.952 | 0.922
CCc1c2c(nc3ccc(O)cc13)-c1cc3c(c(=O)n1C2)COC(=O)[C@]3(O)CC [SN-38] + O=C(c1cc(Cc2n[nH]c(=O)c3ccccc23)ccc1F)N1CCN(C(=O)C2CC2)CC1 [Olaparib] (first compound max 0.3 µM, 7x7, partner max 10 µM) | 0.757 | 0.768 | 0.484 | 0.932 | 0.908 | – | – | 0.764 | 0.267 | – | – | 0.546 | – | – | 0.637 | 0.725 | 0.504 | 0.609 | 0.832 | 0.491

Reference: the supplement of paper PMC11061612
